Measured values from patent US20240358837A1, “Amorphous Photosensitizing Particles, Methods For The Preparation Thereof, And Methods For The Use Thereof” (priority 2021, published 2024).

Key:
blood-brain barrier = assay: Photodynamic opening of the blood-brain barrier (Evans blue) in rats; type: in vivo, rat; settings: low-dose PDT, 80 J/cm^2, 85 mW/cm^2
Description: Sprague-Dawley rats (4-5 weeks old, Envigo) received an intravenous injection of NanoVP (0.25 or 0.5 mg/kg) or 5-aminolevulinic acid (5-ALA, 20 or 125 mg/kg) at 30 min or 4 hours before PDT. PDT parameters, including photosensitizer concentration, drug-light interval, irradiance, and radiant exposure, were selected. At 30 minutes post-photosensitizer injection, rats were anesthetized with isoflurane and secured within a stereotaxic frame.
During the 30-minute drug-light interval, a craniotomy was performed. The top of the rat head was shaved, and the skin was removed. The periosteum was retracted to the edges of the skull. Using a micro drill (OmniDrill35, WPI), a circle about 4 mm in diameter was sketched into the right parietal bone. Drilling was stopped periodically, and PBS was applied to prevent heating. […]
PDT was performed by light activation of the exposed brain (NanoVP: 690 nm, 80 or 100 J/cm^2; 5-ALA: 635 nm, 60 or 80 J/cm^2; 40 or 85 mW/cm^2; ML6600, Modulight). At 90 minutes post-PDT, rats received an intravenous injection of Evans blue dye (2%, 4 mL/kg) to determine the blood-brain barrier integrity using imaging and extraction methods In particular, Evans blue was quantified. […] Samples were centrifuged to pellet the tissue, and the optical density of Evans blue within the supernatant at 610 nm was measured on a multi-mode microplate reader. […]

[1] = non-tumor-bearing animals, 125 mg/kg 5-ALA and 54 J, within 5 days of treatment; cited from earlier work
[2] = Fluorescence self-quenching (fluorescence in DMSO divided by fluorescence in PBS); type: physicochemical; settings: 0.625-5 μM
Description: The stability of NanoVP particles in PBS at 4° C. was determined by monitoring their hydrodynamic size and polydispersity index using a particle sizer analyzer for up to one year. NanoVP singlet oxygen (^1O2) generation, self-quenching, and drug release were studied in 96-well plates as described previously. NanoVP and singlet oxygen sensor green (SOSG) at 5 μM were mixed and irradiated with 690 nm light (10 J/cm^2, 10 mW/cm^2; ML6600, Modulight). A multi-mode microplate reader (Synergy Neo2, BioTek) acquired fluorescence signals of VP (Excitation/Emission: 435/650-750 nm) or SOSG (Excitation/Emission: 504/525 nm) before and after light irradiation. Self-quenching (FDSMO/FO) is defined as the fluorescence after disruption of the NanoVP using DMSO (FDSMO) divided by the fluorescence of the NanoVP in PBS (FO). Photosensitizer release from NanoVP (de-quenching) was studied by monitoring the gain in VP fluorescence signal in PBS/DMSO buffer (0-100% v/v) at room temperature or in Eagle's Minimum Essential Medium (EMEM, Cellgro) with 0-10% v/v fetal bovine serum (FBS, Gibco) at 37° C.
Fluorescence photoactivity was defined as the maximal fluorescence intensity (FL) of NC-VP and L-VP in PBS divided by the maximal fluorescence intensity (FL) of NC-VP and L-VP in DMSO. The absorbance spectrums of the constructs over the visible spectrum were determined in PBS and DMSO. […]

U87 cancer cells = assay: Lysosomal damage (neutral red uptake assay) after PDT; type: cell-based, human; settings: 690 nm, 1 J/cm^2, 50 mW/cm^2; 0.25 μM
Description: (§1) At 24 hours after PDT, cell viability was determined using MTT [3-(4,5-dimethylthiazol-2-yl)-2,5-diphenyltetrazolium bromide] assay or neutral red assay (Abcam) following the vendor's protocol. For dark toxicity evaluation, cells were incubated with media containing photosensitizers (0-40 μM) for 72 hours, followed by the MTT assay. The photosensitizer efflux by ATP binding cassette (ABC) transporters was studied in MCF-7 and its multi-drug resistant sublines (MCF-7 TX400 and MCF-7 MX100) by adapting the protocols described herein.

caspase 3 in U87 cells = assay: Total and cleaved caspase 3 immunoblotting after PDT; type: cell-based, human; settings: one-hour post light activation
Description: Expressions of total and cleaved caspase 3 were examined by immunoblotting techniques. U87 cells were plated in a 35-mm Petri dish (Falcon) at a density of 2.2×10^4 cells/cm^2. Cells were incubated with 0.25 μM of NanoVP, free-form VP, or Liposomal VP for 24 hours. Cells were washed twice with PBS and irradiated with 690-nm light (10 J/cm^2, 50 mW/cm^2) in a fresh culture medium. At 1 hour after PDT, cell lysates were collected in radioimmunoprecipitation assay (RIPA) buffer supplemented with a 1% protease inhibitor. Protein lysates (22 μg) were separated on a 4-12% precast Bis-Tris gel (NuPAGE) and transferred onto a nitrocellulose membrane. After blocking with Odyssey blocking buffer (Li-COR) for 1 hour, blots were incubated with primary antibody against beta-actin (#3700, cell signaling), caspase 3 (#9662, Cell Signaling,), or cleaved caspase 3 (#9661, Cell Signaling) overnight at 4° C. Blots were washed with 1X Tris-buffered Saline, 0.1% Tween® 20 Detergent (TBST) buffer followed by incubation with IRDye 680RD goat anti-mouse secondary antibody (926-68070, Li-COR) or IRDye 800CW goat anti-rabbit secondary antibody (926-32211, Li-COR) for 1 hour at room temperature based on the supplier's advice. Visualization of protein bands was developed using the LiCor ODYSSEY CLx (Li-COR). β-actin serviced as a loading control. Band intensity was determined using LiCOR ODYSSEY CLx software. PDT-treated samples were normalized to a no-treatment control.

U87 cells = assay: PDT cell viability (MTT assay) in U87 cells; type: cell-based, human; settings: MTT 24 hours after PDT, 0-5 J/cm^2, 10 mW/cm^2
Description: Cells were cultured overnight in a 35-mm Petri dish or 96-well black wall plates (1-3.3×10^4 cells/cm^2) and then incubated with photosensitizers (i.e., NanoVP, free-form VP, or Liposomal VP; 0.25 μM) for 24 hours. Subsequently, cells were washed twice with PBS and incubated with a photosensitizer free complete medium. Photosensitizer uptake in cells was determined using extraction methods followed by VP fluorescence measurements (Excitation/Emission: 435/700±10 nm, Synergy Neo2, BioTek) or visualized using fluorescence imaging (Lionheart, BioTek) as described previously. PDT was performed by exposing the cells to 690 nm light (0-10 J/cm^2, […], bottom illumination; ML6600, Modulight).
as §1

Compound	depth at which extravasated Evan Blue is visible in rat brain (blood-brain barrier)	mortality [1] [%]	fluorescence self-quenching [2]	lysosomal integrity (U87 cancer cells)	cleaved-to-total caspase-3 ratio (caspase 3 in U87 cells)	reduction of total (pro) caspase-3 expression (caspase 3 in U87 cells) [%]	increase in cleaved caspase-3 formation (caspase 3 in U87 cells; 10 J/cm^2, 50 mW/cm^2) [fold]	half maximal inhibition concentration (IC50) of PDT (U87 cells) [μM×J/cm^2]
NCC(=O)CCC(=O)O [5-ALA, 5-aminolevulinic acid]	up to 1 mm	50	–	–	–	–	–	–
verteporfin [free-form VP]	–	–	up to 78 fold	does not affect lysosomal integrity	~4.4	~50	~2.4	0.20
